Laboratory results published in ChEMBL document CHEMBL1201862, “PubChem BioAssay data set” (2004).
Where “and” joins values, the source holds several entries; their conditions need not be identical. Equal values may be shown once.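 Following 48 hours of exposure in 96-well plates, responses at five concentrations were used to interpolate endpoints linearly. GI50 marks 50% less growth.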 Calls of active or inactive are those of the source. Cut-off read from the data, not from the text of the source: active = GI50 up to about 1.1 µM and inactive = higher.

How the values were obtained:
Experiment in all cases: NCI-60 cell line screen, 48 h
SW-620 = test system: SW-620
SF-539 = test system: SF-539
M14 = test system: M14
NCI-H23 = test system: NCI-H23
IGROV-1 = test system: IGROV-1
MCF7 = test system: MCF7
U-251 = test system: U-251
MDA-MB-435 = test system: MDA-MB-435
HOP-62 = test system: HOP-62
SK-MEL-2 = test system: SK-MEL-2
RPMI-8226 = test system: RPMI-8226
HT-29 = test system: HT-29
SNB-19 = test system: SNB-19
MDA-MB-231 = test system: MDA-MB-231
TK-10 = test system: TK-10
SK-MEL-28 = test system: SK-MEL-28
ACHN = test system: ACHN
UACC-257 = test system: UACC-257
CCRF-CEM = test system: CCRF-CEM
EKVX = test system: EKVX
OVCAR-5 = test system: OVCAR-5
NCI/ADR-RES = test system: NCI/ADR-RES
PC-3 = test system: PC-3
NCI-H522 = test system: NCI-H522
UACC-62 = test system: UACC-62
A498 = test system: A498
HCT-15 = test system: HCT-15
SK-OV-3 = test system: SK-OV-3
CAKI-1 = test system: CAKI-1
MOLT-4 = test system: MOLT-4
SF-295 = test system: SF-295
HCT-116 = test system: HCT-116
Hs-578T = test system: Hs-578T
HOP-92 = test system: HOP-92
OVCAR-3 = test system: OVCAR-3
COLO 205 = test system: COLO 205
A549 = test system: A549
RXF 393 = test system: RXF 393
HCC 2998 = test system: HCC 2998
DU-145 = test system: DU-145
OVCAR-8 = test system: OVCAR-8
OVCAR-4 = test system: OVCAR-4
UO-31 = test system: UO-31
NCI-H226 = test system: NCI-H226
SNB-75 = test system: SNB-75
SR = test system: SR
786-0 = test system: 786-0
SN12C = test system: SN12C
SF-268 = test system: SF-268
KM12 = test system: KM12
LOX IMVI = test system: LOX IMVI
T47D = test system: T47D
HL-60 = test system: HL-60
K562 = test system: K562
SK-MEL-5 = test system: SK-MEL-5
MDA-N = test system: MDA-N
Malme-3M = test system: Malme-3M
NCI-H460 = test system: NCI-H460

Measured: GI50

CCCCCCCCCCCCCCCCCCNc1ccn(C2OC(COP(=O)(O)OCCCCCCCCCCCCCCCC)C(O)C2O)c(=O)n1 (configuration not stated)
inactive: SW-620 > 100 µM | SF-539 > 100 µM | M14 > 100 µM | NCI-H23 > 100 µM | IGROV-1 > 100 µM | MCF7 > 100 µM | U-251 > 100 µM | MDA-MB-435 > 100 µM | HOP-62 > 100 µM | SK-MEL-2 > 100 µM | RPMI-8226 > 100 µM | HT-29 > 100 µM | SNB-19 > 100 µM | MDA-MB-231 > 100 µM | TK-10 > 100 µM | SK-MEL-28 > 100 µM | ACHN > 100 µM | UACC-257 > 100 µM | CCRF-CEM 77.8 µM | EKVX > 100 µM | OVCAR-5 > 100 µM | NCI/ADR-RES > 100 µM | PC-3 > 100 µM | NCI-H522 51.3 µM | UACC-62 > 100 µM | A498 > 100 µM | SK-OV-3 > 100 µM | CAKI-1 > 100 µM | MOLT-4 > 100 µM | SF-295 > 100 µM | HCT-116 > 100 µM | Hs-578T 83.8 µM | HOP-92 > 100 µM | OVCAR-3 > 100 µM | COLO 205 > 100 µM | A549 > 100 µM | RXF 393 > 100 µM | HCC 2998 > 100 µM | DU-145 > 100 µM | OVCAR-8 > 100 µM | OVCAR-4 > 100 µM | UO-31 > 100 µM | NCI-H226 > 100 µM | SNB-75 74.1 µM | SR > 100 µM | 786-0 > 100 µM | SN12C > 100 µM | SF-268 > 100 µM | KM12 > 100 µM | LOX IMVI 82 µM | T47D > 100 µM | HL-60 58.3 µM | K562 > 100 µM
> 100 µM: HCT-15

COc1ccc2c(c1)[n+]([O-])c1ccccc1[n+]2[O-]
15.1 µM and 28.2 µM: HCT-15
inactive: SW-620 24.7 µM and 29.9 µM | NCI-H23 24.7 µM and 37.5 µM | IGROV-1 5.9 µM | U-251 22.6 µM and 37.4 µM | HOP-62 29.1 µM and 36.8 µM | SK-MEL-2 26.9 µM and 21.8 µM | SK-MEL-5 18.4 µM and 24.1 µM | RPMI-8226 20.3 µM and 19.5 µM | HT-29 29.9 µM and 51.5 µM | MDA-MB-231 29.7 µM and 37.7 µM | TK-10 34.1 µM and 31.5 µM | SK-MEL-28 78.7 µM | CCRF-CEM 22.8 µM and 17.9 µM | EKVX 34 µM and 17.5 µM | OVCAR-5 38.7 µM and 65.9 µM | NCI/ADR-RES 29.9 µM and 53.3 µM | NCI-H522 12.6 µM and 14.6 µM | UACC-62 23.7 µM and 18.5 µM | SK-OV-3 24.7 µM | MDA-N 73.8 µM | Malme-3M 38.7 µM and 37.7 µM | SF-295 21.6 µM and 39.8 µM | HCT-116 31.5 µM and 47.2 µM | HOP-92 47.1 µM | OVCAR-3 36.1 µM and 44.8 µM | COLO 205 33.2 µM and 19.1 µM | A549 11 µM and 21.7 µM | HCC 2998 29.1 µM | OVCAR-8 18.5 µM and 17.2 µM | OVCAR-4 25 µM | UO-31 10.3 µM and 10.2 µM | NCI-H226 26.4 µM and 27.2 µM | SNB-75 70.1 µM and 35.2 µM | SN12C 28.6 µM and 21 µM | KM12 40.5 µM and 22.4 µM

Cc1cn(CC2=NCC(O)CN2)c(=O)[nH]c1=O (configuration not stated)
> 100 µM: HCT-15
inactive: SW-620 > 100 µM | SF-539 > 100 µM | M14 > 100 µM | NCI-H23 > 100 µM | IGROV-1 > 100 µM | MCF7 > 100 µM | U-251 > 100 µM | MDA-MB-435 > 100 µM | HOP-62 > 100 µM | SK-MEL-2 > 100 µM | SK-MEL-5 > 100 µM | RPMI-8226 > 100 µM | HT-29 > 100 µM | SNB-19 > 100 µM | MDA-MB-231 > 100 µM | TK-10 > 100 µM | SK-MEL-28 > 100 µM | ACHN > 100 µM | UACC-257 > 100 µM | CCRF-CEM > 100 µM | EKVX > 100 µM | OVCAR-5 > 100 µM | NCI/ADR-RES > 100 µM | PC-3 > 100 µM | NCI-H522 > 100 µM | UACC-62 > 100 µM | A498 > 100 µM | SK-OV-3 > 100 µM | MDA-N > 100 µM | CAKI-1 > 100 µM | Malme-3M > 100 µM | MOLT-4 > 100 µM | SF-295 > 100 µM | HCT-116 > 100 µM | HOP-92 > 100 µM | OVCAR-3 > 100 µM | COLO 205 > 100 µM | A549 > 100 µM | RXF 393 > 100 µM | HCC 2998 > 100 µM | DU-145 > 100 µM | OVCAR-8 > 100 µM | NCI-H460 > 100 µM | OVCAR-4 > 100 µM | UO-31 > 100 µM | NCI-H226 > 100 µM | 786-0 > 100 µM | SN12C > 100 µM | SF-268 > 100 µM | KM12 > 100 µM | LOX IMVI > 100 µM | T47D > 100 µM | HL-60 > 100 µM | K562 > 100 µM

c1cc2nnnn2nc1N1CCCC1
> 100 µM: HCT-15
inactive: SW-620 > 100 µM | SF-539 > 100 µM | M14 > 100 µM | NCI-H23 > 100 µM | MCF7 > 100 µM | U-251 > 100 µM | MDA-MB-435 > 100 µM | SK-MEL-2 > 100 µM | SK-MEL-5 > 100 µM | RPMI-8226 > 100 µM | HT-29 > 100 µM | SNB-19 > 100 µM | MDA-MB-231 > 100 µM | TK-10 > 100 µM | SK-MEL-28 > 100 µM | ACHN > 100 µM | UACC-257 > 100 µM | CCRF-CEM > 100 µM | OVCAR-5 > 100 µM | NCI/ADR-RES > 100 µM | PC-3 > 100 µM | UACC-62 > 100 µM | A498 > 100 µM | SK-OV-3 > 100 µM | MDA-N > 100 µM | CAKI-1 > 100 µM | MOLT-4 > 100 µM | SF-295 > 100 µM | HCT-116 > 100 µM | HOP-92 > 100 µM | COLO 205 > 100 µM | A549 > 100 µM | RXF 393 > 100 µM | HCC 2998 > 100 µM | DU-145 > 100 µM | OVCAR-8 > 100 µM | NCI-H460 > 100 µM | OVCAR-4 > 100 µM | UO-31 > 100 µM | NCI-H226 > 100 µM | SR > 100 µM | 786-0 > 100 µM | SN12C > 100 µM | SF-268 > 100 µM | KM12 > 100 µM | LOX IMVI > 100 µM | HL-60 > 100 µM | K562 > 100 µM

COC(=O)c1ccc2c(c1)CC1(C2)Cc2ccc3c(c2C1)CCC3 (configuration not stated)
active: M14 0.574 µM | CAKI-1 0.0543 µM | HOP-92 0.855 µM | OVCAR-4 0.809 µM
inactive: SW-620 14.4 µM | SF-539 47.8 µM | NCI-H23 57.3 µM | IGROV-1 42.8 µM | MCF7 23.3 µM | U-251 28.7 µM | MDA-MB-435 3.25 µM | HOP-62 29.9 µM | SK-MEL-5 14.3 µM | RPMI-8226 21.3 µM | HT-29 17.5 µM | SNB-19 33 µM | MDA-MB-231 5.07 µM | TK-10 > 100 µM | SK-MEL-28 86.1 µM | ACHN 57 µM | UACC-257 20.2 µM | CCRF-CEM 19.3 µM | EKVX 51.3 µM | OVCAR-5 > 100 µM | PC-3 6.98 µM | NCI-H522 20.7 µM | UACC-62 14.6 µM | SK-OV-3 13.6 µM | MDA-N 3.63 µM | Malme-3M 17.4 µM | MOLT-4 15 µM | SF-295 24.9 µM | HCT-116 23.6 µM | Hs-578T 37.9 µM | OVCAR-3 80.2 µM | COLO 205 9.84 µM | A549 29.9 µM | RXF 393 17.7 µM | HCC 2998 43 µM | DU-145 53.6 µM | OVCAR-8 69.2 µM | NCI-H226 47.6 µM | SNB-75 33.3 µM | SR 20.8 µM | 786-0 23.2 µM | SN12C 18.6 µM | SF-268 93.8 µM | KM12 12.6 µM | LOX IMVI 20.8 µM | T47D 14.3 µM | HL-60 14.8 µM | K562 6.64 µM
20.1 µM: HCT-15
